Test results as given in patent publication US9346809B2 (LEO PHARMA A/S, priority 2009, dated 2016).

Assays:
Format in all cases: biochemical
[1] = molecular target: T1, JAK1 (aa 850-1154, catalytic domain, GST-tag) (Homo sapiens, UniProt P23458); experiment: JAK kinase assay (HTRF, phosphorylation of TK substrate-biotin), JAK1; conditions: ATP at Km (7 μM); read-out: JAK1 kinase inhibitory activity (EC50 indicator)
T1 construct: JAK1 (aa 850-1154) and TYK2 (aa 871-1187) are expressed with an N-terminally fused GST-tag; GST (N); purchased Carna Biosciences, Inc; host or cells: baculovirus expression system
How it was run: (§1)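 Per reaction, 5 ng JAK1, 0.1 ng JAK2, 0.3 ng JAK3 or 0.8 ng TYK2 (baculovirus-expressed catalytic domains) acted on 1 μM TK substrate-biotin at Km ATP for 20-30 min, RT. Phosphorylation measured by HTRF.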

[2] = molecular target: T2, JAK2 (catalytic domain, His-tag) (Homo sapiens, UniProt O60674); experiment: JAK kinase assay (HTRF, phosphorylation of TK substrate-biotin), JAK2; conditions: ATP at Km (4 μM); read-out: JAK2 kinase inhibitory activity (EC50 indicator)
T2 construct: All four purified enzymes contain only the catalytic domain; His (N); purchased Carna Biosciences, Inc; host or cells: baculovirus expression system
How it was run: as §1

[3] = molecular target: T3, JAK3 (catalytic domain, His-tag) (Homo sapiens, UniProt P52333); experiment: JAK kinase assay (HTRF, phosphorylation of TK substrate-biotin), JAK3; conditions: ATP at Km (2 μM); read-out: JAK3 kinase inhibitory activity (EC50 indicator)
T3 construct: All four purified enzymes contain only the catalytic domain; His (N); purchased Carna Biosciences, Inc; host or cells: baculovirus expression system
How it was run: as §1

[4] = molecular target: T4, TYK2 (aa 871-1187, catalytic domain, GST-tag) (Homo sapiens, UniProt P29597); experiment: JAK kinase assay (HTRF, phosphorylation of TK substrate-biotin), TYK2; conditions: ATP at Km (13 μM); read-out: TYK2 kinase inhibitory activity (EC50 indicator)
T4 construct: JAK1 (aa 850-1154) and TYK2 (aa 871-1187) are expressed with an N-terminally fused GST-tag; GST (N); purchased Carna Biosciences, Inc; host or cells: baculovirus expression system
T4 sequence (P29597 871-1187): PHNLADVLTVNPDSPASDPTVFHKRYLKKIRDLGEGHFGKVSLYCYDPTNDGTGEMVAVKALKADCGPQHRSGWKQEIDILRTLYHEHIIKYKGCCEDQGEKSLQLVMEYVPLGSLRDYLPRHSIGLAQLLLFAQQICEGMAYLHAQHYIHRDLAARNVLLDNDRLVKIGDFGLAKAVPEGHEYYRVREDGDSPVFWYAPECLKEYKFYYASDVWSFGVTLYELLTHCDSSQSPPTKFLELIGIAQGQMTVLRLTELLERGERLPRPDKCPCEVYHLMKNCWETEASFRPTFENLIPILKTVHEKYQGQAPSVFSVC
How it was run: as §1

T1 sequence (P23458 850-1154): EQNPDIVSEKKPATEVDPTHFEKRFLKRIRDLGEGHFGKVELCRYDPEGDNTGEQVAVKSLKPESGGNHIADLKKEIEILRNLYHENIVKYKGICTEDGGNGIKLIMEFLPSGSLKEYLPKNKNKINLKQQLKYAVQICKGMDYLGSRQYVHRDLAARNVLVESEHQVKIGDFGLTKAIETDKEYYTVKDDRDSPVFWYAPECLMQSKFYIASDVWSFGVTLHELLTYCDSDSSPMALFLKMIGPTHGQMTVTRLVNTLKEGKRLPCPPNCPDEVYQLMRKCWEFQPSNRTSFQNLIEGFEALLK
T2 sequence (O60674 849-1124 limits assumed): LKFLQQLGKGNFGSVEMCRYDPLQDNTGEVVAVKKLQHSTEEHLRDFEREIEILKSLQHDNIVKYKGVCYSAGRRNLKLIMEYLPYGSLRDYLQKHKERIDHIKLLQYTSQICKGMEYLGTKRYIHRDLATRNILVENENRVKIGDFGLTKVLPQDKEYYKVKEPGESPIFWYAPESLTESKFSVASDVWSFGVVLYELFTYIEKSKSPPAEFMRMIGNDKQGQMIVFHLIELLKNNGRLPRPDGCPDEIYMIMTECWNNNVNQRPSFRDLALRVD
T3 sequence (P52333 822-1111 limits assumed): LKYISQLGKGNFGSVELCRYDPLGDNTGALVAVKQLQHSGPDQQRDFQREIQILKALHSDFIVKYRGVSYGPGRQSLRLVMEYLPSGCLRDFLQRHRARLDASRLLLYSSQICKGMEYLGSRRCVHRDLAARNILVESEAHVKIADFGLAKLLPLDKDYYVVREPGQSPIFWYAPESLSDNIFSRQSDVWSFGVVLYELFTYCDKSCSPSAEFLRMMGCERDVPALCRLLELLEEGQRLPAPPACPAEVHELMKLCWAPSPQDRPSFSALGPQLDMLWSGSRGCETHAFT

Compound	EC50 [1] [nM]	EC50 [2] [nM]	EC50 [3] [nM]	EC50 [4] [nM]
O=C(O)C1(C(=O)N2CCN(c3ncnc4[nH]ccc34)CC23CC3)CC1 [Example 85, 1-[7-(7H-Pyrrolo[2,3-d]pyrimidin-4-yl)-4,7-diaza-spiro[2.5]octane-4-carbonyl]-cyclopropanecarboxylic acid]	> 500	100 to 500	> 500	> 500
CN(CC#N)C(=O)C1(C(=O)N2CCN(c3ncnc4[nH]ccc34)CC23CC3)CC1 [Example 86, 1-[7-(7H-Pyrrolo[2,3-d]pyrimidin-4-yl)-4,7-diaza-spiro[2.5]octane-4-carbonyl]-cyclopropanecarboxylic acid cyanomethyl-methyl-amide]	> 500	100 to 500	> 500	> 500
CN(CCC#N)C(=O)C1(C(=O)N2CCN(c3ncnc4[nH]ccc34)CC23CC3)CC1 [Example 87, 1-[7-(7H-Pyrrolo[2,3-d]pyrimidin-4-yl)-4,7-diaza-spiro[2.5]octane-4-carbonyl]-cyclopropanecarboxylic acid (2-cyano-ethyl)-methyl-amide]	> 500	> 500	> 500	> 500
N#CC1CCN(C(=O)C2(C(=O)N3CCN(c4ncnc5[nH]ccc45)CC34CC4)CC2)C1 (centres unmarked) [Example 88, 1-{1-[7-(7H-Pyrrolo[2,3-d]pyrimidin-4-yl)-4,7-diaza-spiro[2.5]octane-4-carbonyl]-cyclopropanecarbonyl}-pyrrolidine-3-carbonitrile]	> 500	100 to 500	> 500	> 500
CC#CCOC(=O)N1CCN(c2ncnc3[nH]ccc23)CC12CC2 [Example 89, 7-(7H-Pyrrolo[2,3-d]pyrimidin-4-yl)-4,7-diaza-spiro[2.5]octane-4-carboxylic acid but-2-ynyl ester]	< 100	< 100	100 to 500	> 500
Cc1ccsc1C(=O)N1CCN(c2ncnc3[nH]ccc23)CC12CC2 [Example 90, (3-Methyl-thiophen-2-yl)[7-(7H-pyrrolo[2,3-d]pyrimidin-4-yl)-4,7-diaza-spiro[2.5]oct-4-yl]-methanone]	< 100	< 100	100 to 500	100 to 500

The next lines start with the values.

EC50 [1] [nM]	EC50 [2] [nM]	EC50 [3] [nM]	EC50 [4] [nM]	Compound
< 100	< 100	< 100	< 100	Cc1ccc(C(=O)N2CCN(c3ncnc4[nH]ccc34)CC23CC3)s1 [Example 91, (5-Methyl-thiophen-2-yl)-[7-(7H-pyrrolo[2,3-d]pyrimidin-4-yl)-4,7-diaza-spiro[2.5]oct-4-yl]-methanone]
< 100	< 100	100 to 500	100 to 500	N#Cc1ccc(C(=O)N2CCN(c3ncnc4[nH]ccc34)CC23CC3)c(F)c1 [Example 92, 3-Fluoro-4-[7-(7H-pyrrolo[2,3-d]pyrimidin-4-yl)-4,7-diaza-spiro[2.5]octane-4-carbonyl]-benzonitrile]
< 100	< 100	< 100	100 to 500	CC(=O)Nc1nc(N2CCN(C(=O)Cc3ccc(C#N)cc3)C3(CC3)C2)c2cc[nH]c2n1 [Example 93, N-(4-{4-[2-(4-Cyano-phenyl)-acetyl]-4,7-diaza-spiro[2.5]oct-7-yl}-7H-pyrrolo[2,3-d]pyrimidin-2-yl)-acetamide]
100 to 500	< 100	100 to 500	100 to 500	N#CCN1CCCC(C(=O)N2CCN(c3ncnc4[nH]ccc34)CC23CC3)C1 (centres unmarked) [Example 94, {3-[7-(7H-Pyrrolo[2,3-d]pyrimidin-4-yl)-4,7-diaza-spiro[2.5]octane-4-carbonyl]-piperidin-1-yl}-acetonitrile]
100 to 500	100 to 500	> 500	> 500	N#CCCN1CCCC(C(=O)N2CCN(c3ncnc4[nH]ccc34)CC23CC3)C1 (centres unmarked) [Example 95, 3-{3-[7-(7H-Pyrrolo[2,3-d]pyrimidin-4-yl)-4,7-diaza-spiro[2.5]octane-4-carbonyl]-piperidin-1-yl}-propionitrile]
